Assays:
[1] = Relaxivity in water (NMR pulse spectrometer Minispec PC 20); assay type: physicochemical; details: 40° C., 0.47 T
Description: The T1 and T2 relaxation times of water and plasma (from cows) with increasing concentrations of the gadolinium complexes (I-XIII) contained therein were determined at 40° C. with use of an NMR pulse spectrometer (Minispec PC 20) at 0.47 T, and the relaxivity was determined.

[2] = test system: mice; experiment: Acute toxicity after one-time intravenous administration in mice; assay type: in vivo; details: one-time i.v., observation period of 7 days, determined preliminarily
Description: After intravenous administration of the gadolinium complexes (I-X) in mice (n=3; rate of injection: 2 ml/min), the acute systemic compatibility (LD50) was determined preliminarily. In each case, several dosages with an observation period of 7 days were examined. The acute toxicities that are to be expected can be seen in Table 1.

[3] = Excretion after intravenous administration in rats (ICP-AES); assay type: in vivo; details: i.v., 50 μmol of total gadolinium/kg of body weight, 14 days after administration
From the text: After intravenous administration of 50 μmol of total gadolinium/kg of body weight of the gadolinium complexes (I-X) in rats (n=3), the metal content was l determined in fractions up to 14 days after administration by means of atomic emission spectrometry (ICP-AES) in the excretion media of urine and feces, as well as in the body (the rest of the body).

[4] = Plasma kinetics after intravenous administration in rats (ICP-AES); assay type: in vivo; details: i.v., 50 μmol of total gadolinium/kg of body weight
Description: After intravenous administration of 50 μmol of total gadolinium/kg of body weight of the gadolinium complexes (I-X) in rats (n=3), blood samples were taken via a catheter in the common carotid artery at different points in time ([…] to 24 hours p.i.), the metal content was determined by means of atomic emission spectrometry (ICP-AES) and converted to plasma values via a conversion factor (0.625). The elimination half-life was calculated by means of special software (WinNonlin) from the plasma concentrations.

[5] = test system: arteriosclerotic plaque; experiment: MRT visualization of arteriosclerotic plaque; assay type: in vivo, Watanabe rabbits (WHHL rabbits); details: WHHL rabbits, i.v. 50 μmol or 100 μmol of Gd/kg, 6 or 24 hours, T1-weighted IR-TFL; not in vascular wall of healthy control animals
Description: The pictures of FIG. 2 show MR images of the aorta 6 or 24 hours after intravenous administration of 50 μmol or 100 μmol of Gd/kg of body weight of gadolinium complex I (title substance of Example 1f), gadolinium complex IV (title substance of Example 11e), and gadolinium complex VIII (title substance of Example 16c) in Watanabe rabbits (WHHL rabbits; genetically-induced arteriosclerosis) and in control animals without arteriosclerosis (white New Zealands). […] The localization of the plaque, especially in the aortic arch as well as in the vascular passages, was confirmed by means of Sudan-3 staining. With this test, the suitability of the compounds according to the invention as markers for arteriosclerotic plaque could be shown.

[6] = test system: iliac lymph nodes and i.m.-implanted VX2 tumors; experiment: MRT visualization of lymph node metastases and primary tumors in VX2-tumor-carrying rabbits; assay type: in vivo; details: rabbits with VX2 tumors, i.v. 50 μmol of Gd/kg
Description: The pictures of FIG. 1 show MR images of iliac lymph nodes precontrast as well as up to 24 hours after intravenous administration of 50 μmol of Gd/kg of body weight of gadolinium complex VIII (title substance of Example 16c) in rabbits with i.m.-implanted VX2 tumors. […] Zones where there was no signal rise within the lymph node were diagnosed as metastases and confirmed histologically (H/E staining of the lymph node sections).
At later times (24 hours p.i.), this enhancement also propagates toward the center of the tumor.

Structure (SMILES)	Relaxivity R1(w) [1]	LD50 Mouse [2]	Body Retention 14 days [3] [%]	Elimination Half-Life of Blood [4]	Gd Content of Blood 24 Hours p.i. [4] [%]	MR signal in the arteriosclerotic plaque [5]	MR signal in healthy lymph node tissue ([6]; T1-weighted turbo-spin-echo, 15 to 60 minutes p.i.)	MR enhancement in the primary tumor ([6]; immediately after administration, especially in the periphery)
CC(C(=O)NCC(=O)NCCCC[C@H](NC(=O)CO[C@H]1O[C@H](CO)[C@@H](O)[C@H](O)[C@@H]1O)C(=O)NCCCC(F)(F)C(F)(F)C(F)(F)C(F)(F)C(F)(F)C(F)(F)F)N1CCN(CC(=O)[O-])CCN(CC(=O)[O-])CCN(CC(=O)[O-])CC1.[Gd+3] (stereo partly drawn) [Gadolinium complex II, Gadolinium complex of 6-N-[1,4,7-tris-(carboxylatomethyl)-1,4,7,10-tetraazacyclododecane-10-N-(pentanoyl-3-aza-4-oxo-5-methyl-5-yl)]-2-N-(1-O-α-d-carbonylmethylmannopyranose)-L-lysine-[(1H,1H,2H,2H-perfluorooctyl)-methyl]-amide]	R1(w): 5.7 l/(mmol * s)	10 mmol/kg	0.0	0.9 hour^ hours	0.0	–	–	–
CC(C(=O)NCC(=O)NCCCC[C@H](NC(=O)CO[C@H]1O[C@H](CO)[C@@H](O)[C@H](O)[C@@H]1O)C(=O)NCCCOCCC(F)(F)C(F)(F)C(F)(F)C(F)(F)C(F)(F)C(F)(F)C(F)(F)C(F)(F)F)N1CCN(CC(=O)[O-])CCN(CC(=O)[O-])CCN(CC(=O)[O-])CC1.[Gd+3] (stereo partly drawn) [Gadolinium complex III, Gadolinium complex of 6-N-[1,4,7-tris-(carboxylatomethyl)-1,4,7,10-tetraazacyclododecane-10-N-(pentanoyl-3-aza-4-oxo-5-methyl-5-yl)]-2-N-(1-O-α-d-carbonylmethylmannopyranose)-L-lysine-[(1H,1H,2H,2H,4H,4H,5H,5H-3-oxa-perfluorotridecyl)-methyl]-amide]	R1(w): 17.8 l/(mmol * s)	≧10 mmol/kg	1.5	6.2 h	1.6	–	–	–
COCCN(CCOCCC(F)(F)C(F)(F)C(F)(F)C(F)(F)C(F)(F)C(F)(F)C(F)(F)C(F)(F)F)C(=O)[C@H](CCCCNC(=O)CNC(=O)C(C)N1CCN(CC(=O)[O-])CCN(CC(=O)[O-])CCN(CC(=O)[O-])CC1)NC(=O)CO[C@H]1O[C@H](CO)[C@@H](O)[C@H](O)[C@@H]1O.[Gd+3] (stereo partly drawn) [Gadolinium complex IV, Gadolinium complex of 6-N-[1,4,7-tris-(carboxylatomethyl)-1,4,7,10-tetraazacyclododecane-10-N-(pentanoyl-3-aza-4-oxo-5-methyl-5-yl)]-2-N-(1-O-α-d-carbonylmethylmannopyranose)-L-lysine-N-(2-methoxyethyl)-N-(1H,1H,2H,2H,4H,4H,5H,5H-3-oxa-perfluorotridecyl)-amide]	R1(w): 16.6 l/(mmol * s)	≧15 mmol/kg	2.6	5.3 h	1.8	strong signal rise	–	–
CC(C(=O)NCC(=O)N[C@@H](CCCCNC(=O)CO)C(=O)NCCCC(F)(F)C(F)(F)C(F)(F)C(F)(F)C(F)(F)C(F)(F)C(F)(F)C(F)(F)F)N1CCN(CC(=O)[O-])CCN(CC(=O)[O-])CCN(CC(=O)[O-])CC1.[Gd+3] (stereo partly drawn) [Gadolinium complex IX, Gadolinium complex of 2-N-[1,4,7-tris-(carboxylatomethyl)-1,4,7,10-tetraazacyclododecane-10-N-(pentanoyl-3-aza-4-oxo-5-methyl-5-yl)]-6-N-(2-hydroxyacetyl)-L-lysine-[(1H,1H,2H,2H-perfluorodecyl)-methyl]-amide]	R1(w): 18.8 l/(mmol * s)	>10 mmol/kg	0.2	4.3 h	0.5	–	–	–
COCCN(CCC(F)(F)C(F)(F)C(F)(F)C(F)(F)C(F)(F)C(F)(F)C(F)(F)C(F)(F)F)C(=O)[C@H](CCCCNC(=O)CNC(=O)C(C)N1CCN(CC(=O)[O-])CCN(CC(=O)[O-])CCN(CC(=O)[O-])CC1)NC(=O)CO[C@H]1O[C@H](CO)[C@@H](O)[C@H](O)[C@@H]1O.[Gd+3] (stereo partly drawn) [Gadolinium complex V, Gadolinium complex of 6-N-[1,4,7-tris-(carboxylatomethyl)-1,4,7,10-tetraazacyclododecane-10-N-(pentanoyl-3-aza-4-oxo-5-methyl-5-yl)]-2-N-(1-O-α-d-carbonylmethylmannopyranose)-L-lysine-N-(2-methoxyethyl)-N-(1H,1H,2H,2H-perfluorodecyl)-amide]	R1(w): 18.3 l/(mmol * s)	15 mmol/kg	0.0	6.7 h	2.1	–	–	–
CC(C(=O)NCC(=O)NCCCC[C@H](NC(=O)COCC(CO)(CO)CO)C(=O)NCCCC(F)(F)C(F)(F)C(F)(F)C(F)(F)C(F)(F)C(F)(F)C(F)(F)C(F)(F)F)N1CCN(CC(=O)[O-])CCN(CC(=O)[O-])CCN(CC(=O)[O-])CC1.[Gd+3] (stereo partly drawn) [Gadolinium complex VI, Gadolinium complex of 6-N-[1,4,7-tris-(carboxylatomethyl)-1,4,7,10-tetraazacyclododecane-10-N-(pentanoyl-3-aza-4-oxo-5-methyl-5-yl)]-2-N-[(3-hydroxy-2,2-dihydroxymethylpropoxy)-acetyl]-L-lysine-[(1H,1H,2H,2H-perfluorodecyl)-methyl]-amide]	R1(w): 16.9 l/(mmol * s)	>10 mmol/kg	0.0	7.7 h	2.6	–	–	–
COC[C@H]1O[C@H](OCC(=O)NC(CCCCNC(=O)CNC(=O)C(C)N2CCN(CC(=O)[O-])CCN(CC(=O)[O-])CCN(CC(=O)[O-])CC2)C(=O)N(C)CCC(F)(F)C(F)(F)C(F)(F)C(F)(F)C(F)(F)C(F)(F)C(F)(F)C(F)(F)F)[C@@H](OC)[C@@H](OC)[C@@H]1OC.[Gd+3] (stereo partly drawn) [Gadolinium complex VII, Gadolinium complex of 6-N-[1,4,7-tris-(carboxylatomethyl)-1,4,7,10-tetraazacyclododecane-10-N-(pentanoyl-3-aza-4-oxo-5-methyl-5-yl)]-2-N-[1-O-α-d-carbonylmethyl-(2,3,4,6-tetra-O-methyl)mannopyranose]-L-lysine-[(1H,1H,2H,2H-perfluorodecyl)-methyl]-amide]	R1(w): 14.7 l/(mmol * s)	≦15 mmol/kg	5.4	5.4 h	1.2	–	–	–
CC(C(=O)NCC(=O)N[C@@H](CCCCNC(=O)CO[C@H]1O[C@H](CO)[C@@H](O)[C@H](O)[C@@H]1O)C(=O)N(C)CCC(F)(F)C(F)(F)C(F)(F)C(F)(F)C(F)(F)C(F)(F)C(F)(F)C(F)(F)F)N1CCN(CC(=O)[O-])CCN(CC(=O)[O-])CCN(CC(=O)[O-])CC1.[Gd+3] (stereo partly drawn) [Gadolinium complex VIII, Gadolinium complex of 2-N-[1,4,7-tris-(carboxylatomethyl)-1,4,7,10-tetraazacyclododecane-10-N-(pentanoyl-3-aza-4-oxo-5-methyl-5-yl)]-6-N-(1-O-α-d-carbonylmethylmannopyranose)-L-lysine-[(1H,1H,2H,2H-perfluorodecyl)-methyl]-amide]	R1(w): 20.6 l/(mmol * s)	≧10 mmol/kg	0.0	4.3 h	0.5	strong signal rise	strong signal rise	clear enhancement
